Assay: pharmacological and clinical studies (summary statements)
Type: in vivo
Details: presence of R-citalopram
From the text: This may be shown in functional in-vivo pharmacological models and studies of 5-HT-reuptake effect and or in behaviour models, for example depression models.

## CN(C)CCC[C@]1(c2ccc(F)cc2)OCc2cc(C#N)ccc21 [R-citalopram]
  impact on the effect of escitalopram: negative impact on the effect of escitalopram

Reference: patent publication US20040198809A1 (priority 2001, published 2004)
